The source made the active and inactive calls. The rule behind the calls is not given here.
Assays:
[1] = Toxicity in female BALB/c nude mouse xenografted with human MIA PaCa-2 cells assessed as animal death at 50 mg/kg, po administered twice daily for 21 days; type: organism-based; conditions: in vivo, 504 h, time 21 day
MIA PaCa-2 [2] = assay: Antiproliferative activity against human MIA PaCa-2 cells expressing KRAS G12C mutant assessed as maximal inhibition of cell proliferation incubated for 14 days in 3-D culture condition relative to control; type: functional; conditions: time 14 day
[3] = Therapeutic index, ratio of IC50 for human MCF-10A cells to IC50 for human MIA PaCa-2 cells expressing KRAS G12C mutant; type: toxicity; conditions: read-out: Ratio IC50
[4] = Therapeutic index, ratio of IC50 for human MCF-10A cells to IC50 for human NCI-H441 cells expressing KRAS G12V mutant; type: toxicity; conditions: read-out: Ratio IC50
[5] = Therapeutic index, ratio of IC50 for human MCF-10A cells to IC50 for human DLD-1 cells expressing KRAS G13D mutant; type: toxicity; conditions: MCF-10A cells versus DLD-1 cells expressing KRAS G13D mutant, read-out: Ratio IC50
Mus musculus [6] = assay: In vivo inhibition of ERK phosphorylation in female BALB/c nude mouse xenografted with human MIA PaCa-2 cells assessed as effect on phosphorylated ERK level in tumor at 50 mg/kg, po administered twice daily for 21 days; type: functional, organism-based; conditions: time 21.0 day
[7] = Half-life in male CD-1 mouse at 10 mg/kg, po measured after 24 hrs by LC-MS/MS analysis; type: ADME, organism-based; conditions: in vivo
[8] = Inhibition of ERK phosphorylation in human DLD-1 cells expressing KRAS G13D mutant incubated for 60 mins by HTRF assay; type: cell-based; conditions: DLD-1, 1 h
[9] = Cytotoxicity against human MCF-10A cells assessed as inhibition of cell proliferation
SOS1-KRAS = SOS1-KRAS (Homo sapiens, UniProt Q07889); assay: Inhibition of 6His peptide-tagged recombinant human SOS1 (564 to 1049 residues)/N-terminal GST-tagged human recombinant KRAS G12C mutant protein-protein interaction incubated for 1 hrs by HTRF assay; type: protein-complex assay
SOS1-KRAS, sequence (Q07889 whole entry, looked up, stated change not applied, the tested form may be a part): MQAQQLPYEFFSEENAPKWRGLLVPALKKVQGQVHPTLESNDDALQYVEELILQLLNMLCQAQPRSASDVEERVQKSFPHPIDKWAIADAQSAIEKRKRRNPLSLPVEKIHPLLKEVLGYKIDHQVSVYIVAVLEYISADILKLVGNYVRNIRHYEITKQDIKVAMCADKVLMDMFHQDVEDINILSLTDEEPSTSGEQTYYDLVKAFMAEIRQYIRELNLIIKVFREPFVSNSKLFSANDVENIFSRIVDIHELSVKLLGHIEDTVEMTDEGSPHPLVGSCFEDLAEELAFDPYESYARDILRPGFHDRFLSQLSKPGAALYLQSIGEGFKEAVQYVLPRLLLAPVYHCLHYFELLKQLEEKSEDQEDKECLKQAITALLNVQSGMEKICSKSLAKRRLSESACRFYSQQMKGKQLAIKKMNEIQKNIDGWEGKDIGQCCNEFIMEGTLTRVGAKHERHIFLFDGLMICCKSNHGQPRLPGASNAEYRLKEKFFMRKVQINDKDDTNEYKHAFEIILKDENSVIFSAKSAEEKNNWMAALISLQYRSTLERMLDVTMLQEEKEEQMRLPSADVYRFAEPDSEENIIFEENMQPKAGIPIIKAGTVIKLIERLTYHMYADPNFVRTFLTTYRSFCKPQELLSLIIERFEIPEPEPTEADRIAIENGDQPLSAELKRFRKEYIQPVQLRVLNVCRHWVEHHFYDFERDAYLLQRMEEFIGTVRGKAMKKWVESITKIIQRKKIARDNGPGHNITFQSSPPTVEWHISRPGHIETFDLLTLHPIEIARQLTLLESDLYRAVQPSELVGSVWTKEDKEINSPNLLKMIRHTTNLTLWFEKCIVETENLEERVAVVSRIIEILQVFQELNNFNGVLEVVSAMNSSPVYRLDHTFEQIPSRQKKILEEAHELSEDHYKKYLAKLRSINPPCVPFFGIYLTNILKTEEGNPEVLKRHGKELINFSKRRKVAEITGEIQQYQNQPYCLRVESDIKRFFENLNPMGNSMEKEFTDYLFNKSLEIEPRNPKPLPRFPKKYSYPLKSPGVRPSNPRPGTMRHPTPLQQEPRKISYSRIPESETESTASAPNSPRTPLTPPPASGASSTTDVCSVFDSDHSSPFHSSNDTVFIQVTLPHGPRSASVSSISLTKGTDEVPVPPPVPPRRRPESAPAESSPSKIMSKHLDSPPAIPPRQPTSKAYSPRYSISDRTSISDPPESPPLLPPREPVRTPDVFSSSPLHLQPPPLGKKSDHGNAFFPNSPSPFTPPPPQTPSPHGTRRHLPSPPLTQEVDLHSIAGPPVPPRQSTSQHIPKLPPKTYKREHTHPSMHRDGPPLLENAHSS

NCI-H358 = assay: Antiproliferative activity against human NCI-H358 cells expressing KRAS G12C mutant assessed as inhibition of cell proliferation; type: functional, cell-based
[10] = Tmax in male CD-1 mouse at 10 mg/kg, po measured after 24 hrs by LC-MS/MS analysis; type: ADME, organism-based; conditions: in vivo
MIA PaCa-2 [11] = assay: Antitumor activity against human MIA PaCa-2 cells xenografted in female BALB/c nude mouse assessed as tumor growth inhibition at 50 mg/kg, po administered twice daily for 21 days relative to control; type: functional; conditions: MIA PaCa-2, 504 h, time 21 day, read-out: TGI
MIA PaCa-2 [12] = assay: Antiproliferative activity against human MIA PaCa-2 cells expressing KRAS G12C mutant assessed as inhibition of cell proliferation incubated for 14 days in 3-D culture condition; type: functional, cell-based; conditions: MIA PaCa-2, 336 h
NCI-H520 = assay: Antiproliferative activity against human NCI-H520 cells expressing wildtype KRAS assessed as inhibition of cell proliferation; type: functional, cell-based
[13] = MRT in male CD-1 mouse at 10 mg/kg, po measured after 24 hrs by LC-MS/MS analysis; type: ADME, organism-based; conditions: in vivo
DLD-1 = assay: Antiproliferative activity against human DLD-1 cells expressing KRAS G13D mutant assessed as inhibition of cell proliferation; type: functional, cell-based
[14] = Toxicity in female BALB/c nude mouse xenografted with human MIA PaCa-2 cells assessed as body weight loss at 50 mg/kg, po administered twice daily for 21 days; type: organism-based; conditions: in vivo, 504 h, time 21 day
NCI-H441 = assay: Antiproliferative activity against human NCI-H441 cells expressing KRAS G12V mutant assessed as inhibition of cell proliferation; type: functional, cell-based
[15] = Elimination rate constant in male CD-1 mouse at 10 mg/kg, po measured after 24 hrs by LC-MS/MS analysis; type: ADME, organism-based; conditions: in vivo
Mus musculus [16] = assay: In vivo inhibition of AKT phosphorylation in female BALB/c nude mouse xenografted with human MIA PaCa-2 cells assessed as effect on phosphorylated AKT level in tumor at 50 mg/kg, po administered twice daily for 21 days; type: functional, organism-based; conditions: time 21.0 day
[17] = Cmax in male CD-1 mouse at 10 mg/kg, po measured after 24 hrs by LC-MS/MS analysis; type: ADME, organism-based; conditions: in vivo
[18] = AUC in male CD-1 mouse at 10 mg/kg, po measured after 24 hrs by LC-MS/MS analysis; type: ADME, organism-based; conditions: in vivo
[19] = Therapeutic index, ratio of IC50 for human MCF-10A cells to IC50 for human NCI-H358 cells expressing KRAS G12C mutant; type: toxicity; conditions: read-out: Ratio IC50

| Compound | half-life [7] | IC50 [8] | IC50 (SOS1-KRAS) | Tmax [10] | IC50 (MIA PaCa-2 [12]) | MRT [13] | k el at 24 h [15] | Cmax [17] | AUC at 24 h [18] | Imax (MIA PaCa-2 [2]) | other results |
| --- | --- | --- | --- | --- | --- | --- | --- | --- | --- | --- | --- |
| Cc1nc(N[C@H](C)c2cccc(C(F)F)c2F)c2cc3c(cc2n1)OCCN3C(=O)C1CCN(C(C)C)CC1 | 1.65 h | 18 nM | 5.1 nM | 1.08 h | 110 nM | 2.83 h | 0.000117 s⁻¹ | 790 ng/mL | 2910 ng·h/mL | 86% | Activity [1]: Non-toxic; selectivity ratio [3]: > 400; selectivity ratio [4]: > 400; selectivity ratio [5]: > 400; inhibition (Mus musculus [6]): Active; IC50 [9]: 44600 nM; IC50 (NCI-H358): 70 nM; inhibition in vivo at 50 mg/kg (MIA PaCa-2 [11]): 70.5%; IC50 (NCI-H520): 2880 nM; IC50 (DLD-1): 70 nM; Activity [14]: Non-toxic; IC50 (NCI-H441): 120 nM; inhibition (Mus musculus [16]): Active; selectivity ratio [19]: > 400 |
| Cc1nc(N[C@H](C)c2cccc(C(F)F)c2F)c2cc3c(cc2n1)OCCN3C(=O)C1CN(C)C1 |  | 330 nM | 94 nM |  | 1530 nM |  |  |  |  | 67% |  |
| COc1cc2nc(C)nc(N[C@H](C)c3cc(N)cc(C(F)(F)F)c3)c2cc1O[C@H]1CCOC1 | 1.67 h | 30 nM |  | 0.33 h | 150 nM | 2.44 h | 0.000119 s⁻¹ | 870 ng/mL | 2300 ng·h/mL | 85% | inhibition (Mus musculus [6]): Active; IC50 (NCI-H358): 120 nM; inhibition in vivo at 50 mg/kg (MIA PaCa-2 [11]): 56.3%; IC50 (NCI-H520): 2630 nM; IC50 (DLD-1): 100 nM; IC50 (NCI-H441): 160 nM; inhibition (Mus musculus [16]): Active |
| C=C(F)C(=O)N1CCN(c2nc(OC[C@@H]3CCCN3C)nc3c2CCN(c2cccc4cccc(Cl)c24)C3)C[C@@H]1CC#N [ADAGRASIB] |  |  |  |  | 250 nM |  |  |  |  | 89% |  |
| Cc1nc(N[C@H](C)c2cccc(C(F)F)c2F)c2cc3c(cc2n1)OCCN3C(=O)N1CCN(C)CC1 |  | 97 nM | 24 nM |  | 660 nM |  |  |  |  | 79% |  |
| Cc1nc(N[C@H](C)c2cccc(C(F)F)c2F)c2cc3c(cc2n1)OCCN3C(=O)C1CCOCC1 |  | 71 nM | 19 nM |  | 1320 nM |  |  |  |  | 76% |  |

More lines, main results first:

| half-life [7] | IC50 [8] | IC50 (SOS1-KRAS) | Tmax [10] | IC50 (MIA PaCa-2 [12]) | MRT [13] | k el at 24 h [15] | Cmax [17] | AUC at 24 h [18] | Compound | Imax (MIA PaCa-2 [2]) | other results |
| --- | --- | --- | --- | --- | --- | --- | --- | --- | --- | --- | --- |
| 1.72 h | 21 nM | 5.6 nM | 0.5 h | 140 nM | 2.11 h | 0.000111 s⁻¹ | 650 ng/mL | 1920 ng·h/mL | Cc1nc(N[C@H](C)c2cccc(C(F)F)c2F)c2cc3c(cc2n1)OCCN3C(=O)C1CCN(C)CC1 | 82% |  |
|  | > 3000 nM | 481 nM |  | > 10000 nM |  |  |  |  | Cc1nc(N[C@H](C)c2cccc(C(F)F)c2F)c2cc3c(cc2n1)OCCN3C(=O)N1CCN(C)C[C@@H]1C | 26% |  |

From ChEMBL document CHEMBL6120984, “Novel potent SOS1 inhibitors containing a tricyclic quinazoline scaffold: A joint view of experiments and simulations” (Eur J Med Chem, 2025)
